Source: the supplement of paper PMC12819154, “High-throughput peptide-centric local stability assay extends protein–ligand identification to membrane proteins, tissues and bacteria” (Nature Structural & Molecular Biology, 2025)

Legend:
Assay in all cases: pEC50 of peptide local stability change
UniProt P04425 = conditions: peptide sequence: GTLIVNKPQSLR; direction: stabilized; replicate design: treated separately
Description: (§1)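 Dose-response HT-PELSA: desalted E. coli lysate treated separately per replicate with ATP (10 uM to 10 mM, 7 doses) for 30 min at 25 C, then a 4 min trypsin pulse at 22 C. Peptide ratio vs control was fitted with a 4-parameter log-logistic model (R2 > 0.9 in at least 3 replicates, CV of pEC50 <= 0.25); value is the mean pEC50 across replicates for stabilized or destabilized peptides.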

UniProt P06710 = conditions: peptide sequence: ALDVEQIR; direction: stabilized; replicate design: treated separately
Description: as §1

UniProt P07395 = conditions: peptide sequence: EISRFPANRR; direction: stabilized; replicate design: treated separately
Description: as §1

UniProt P08200 = conditions: peptide sequence: VAIKGPLTTPVGGGIR; direction: stabilized; replicate design: treated separately
Description: as §1

UniProt P0A6H5 = conditions: peptide sequence: LANAPFIK; direction: stabilized; replicate design: treated separately
Description: as §1

UniProt P12282 = conditions: peptide sequence: NQLNAGCFAAK; direction: stabilized; replicate design: treated separately
Description: as §1

UniProt P15038 = conditions: peptide sequence: AVVNGEHSLLVLAGAGSGK; direction: stabilized; replicate design: treated separately
Description: as §1

UniProt P15640 = conditions: peptide sequence: VIEFNCR; direction: stabilized; replicate design: treated separately
Description: as §1

UniProt P17888 = conditions: peptide sequence: QQQALAALR; direction: stabilized; replicate design: treated separately
Description: as §1

UniProt P22106 = conditions: peptide sequence: QALEDSVK; direction: stabilized; replicate design: treated separately
Description: as §1

UniProt P25536 = conditions: peptide sequence: IVTGIEEQR; direction: stabilized; replicate design: treated separately
Description: as §1

UniProt P27300 = conditions: peptide sequence: SVDAVIVNGGVPR; direction: stabilized; replicate design: treated separately
Description: as §1

UniProt P27550 = conditions: peptide sequence: NTSFAPGNVSIK; direction: stabilized; replicate design: treated separately
Description: as §1

UniProt P30015 = conditions: peptide sequence: TGDTPAQER; direction: stabilized; replicate design: treated separately
Description: as §1

UniProt P31142 = conditions: peptide sequence: FNAEVDEPRPGLR; direction: stabilized; replicate design: treated separately
Description: as §1

UniProt P32143 = conditions: peptide sequence: AGIPDCDQTR; direction: stabilized; replicate design: treated separately
Description: as §1

UniProt P33919 = conditions: peptide sequence: VLVLAHVK; direction: stabilized; replicate design: treated separately
Description: as §1

UniProt P36879 = conditions: peptide sequence: KTYPGGVQALR; direction: stabilized; replicate design: treated separately
Description: as §1

UniProt P37617 = conditions: peptide sequence: VTQVAFDKTGTLTVGKPR; direction: stabilized; replicate design: treated separately
Description: as §1

UniProt P37903 = conditions: peptide sequence: KFKLPTDR; direction: stabilized; replicate design: treated separately
Description: as §1

UniProt P37908 = conditions: peptide sequence: QLSHSPHGR; direction: stabilized; replicate design: treated separately
Description: as §1

UniProt P42593 = conditions: peptide sequence: TTGWIHR; direction: stabilized; replicate design: treated separately
Description: as §1

UniProt P43672 = conditions: peptide sequence: LMLGQLQADSGR; direction: stabilized; replicate design: treated separately
Description: as §1

UniProt P46889 = conditions: peptide sequence: DIAGEPVVADLAK; direction: stabilized; replicate design: treated separately
Description: as §1

UniProt P75736 = conditions: peptide sequence: QQAAAIMR; direction: stabilized; replicate design: treated separately
Description: as §1

UniProt P75796 = conditions: peptide sequence: IPEAQTILSR; direction: stabilized; replicate design: treated separately
Description: as §1

UniProt P75821 = conditions: peptide sequence: SAKEPPLTHYGVSK; direction: stabilized; replicate design: treated separately
Description: as §1

UniProt P76027 = conditions: peptide sequence: EILNLPEHELNKLR; direction: stabilized; replicate design: treated separately
Description: as §1

UniProt P76256 = conditions: peptide sequence: GPGSFTGVR; direction: stabilized; replicate design: treated separately
Description: as §1

UniProt P76594 = conditions: peptide sequence: YLVIQGIK; direction: stabilized; replicate design: treated separately
Description: as §1

UniProt Q47129 = conditions: peptide sequence: LSTVTTSGVNLSR; direction: stabilized; replicate design: treated separately
Description: as §1

Sequence of UniProt P36879 (P36879 whole entry): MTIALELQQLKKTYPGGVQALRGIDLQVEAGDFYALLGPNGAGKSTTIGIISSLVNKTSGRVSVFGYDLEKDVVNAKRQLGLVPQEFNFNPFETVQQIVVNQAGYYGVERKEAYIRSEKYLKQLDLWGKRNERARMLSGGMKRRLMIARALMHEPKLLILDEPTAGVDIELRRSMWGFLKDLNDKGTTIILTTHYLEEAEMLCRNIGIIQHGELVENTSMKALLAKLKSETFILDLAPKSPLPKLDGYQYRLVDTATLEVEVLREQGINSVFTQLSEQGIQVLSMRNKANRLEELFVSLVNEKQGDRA
Sequence of UniProt P76594 (P76594 whole entry): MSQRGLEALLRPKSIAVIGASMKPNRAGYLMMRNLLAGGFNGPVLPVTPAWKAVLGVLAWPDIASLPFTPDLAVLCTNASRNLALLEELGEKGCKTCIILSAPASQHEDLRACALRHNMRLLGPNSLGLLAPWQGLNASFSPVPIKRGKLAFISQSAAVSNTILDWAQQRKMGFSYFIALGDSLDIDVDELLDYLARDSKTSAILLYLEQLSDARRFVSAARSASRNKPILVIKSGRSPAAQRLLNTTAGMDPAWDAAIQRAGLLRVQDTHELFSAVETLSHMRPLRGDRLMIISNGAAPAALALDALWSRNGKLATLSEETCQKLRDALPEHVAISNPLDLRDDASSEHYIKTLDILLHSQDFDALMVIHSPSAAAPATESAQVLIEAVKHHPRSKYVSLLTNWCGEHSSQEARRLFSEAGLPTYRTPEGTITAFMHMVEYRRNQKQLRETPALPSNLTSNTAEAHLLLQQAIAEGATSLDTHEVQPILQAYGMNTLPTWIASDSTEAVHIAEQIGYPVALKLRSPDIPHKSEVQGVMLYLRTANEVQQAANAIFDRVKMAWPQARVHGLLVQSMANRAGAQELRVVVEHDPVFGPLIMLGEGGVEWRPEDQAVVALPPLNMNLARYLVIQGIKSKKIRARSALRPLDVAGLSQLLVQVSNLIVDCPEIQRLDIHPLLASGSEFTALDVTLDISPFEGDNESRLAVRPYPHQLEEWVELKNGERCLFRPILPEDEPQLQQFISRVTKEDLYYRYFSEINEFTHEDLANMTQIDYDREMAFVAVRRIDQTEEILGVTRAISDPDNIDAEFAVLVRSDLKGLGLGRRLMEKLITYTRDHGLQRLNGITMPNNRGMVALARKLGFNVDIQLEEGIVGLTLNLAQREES
Sequence of UniProt P07395 (P07395 whole entry): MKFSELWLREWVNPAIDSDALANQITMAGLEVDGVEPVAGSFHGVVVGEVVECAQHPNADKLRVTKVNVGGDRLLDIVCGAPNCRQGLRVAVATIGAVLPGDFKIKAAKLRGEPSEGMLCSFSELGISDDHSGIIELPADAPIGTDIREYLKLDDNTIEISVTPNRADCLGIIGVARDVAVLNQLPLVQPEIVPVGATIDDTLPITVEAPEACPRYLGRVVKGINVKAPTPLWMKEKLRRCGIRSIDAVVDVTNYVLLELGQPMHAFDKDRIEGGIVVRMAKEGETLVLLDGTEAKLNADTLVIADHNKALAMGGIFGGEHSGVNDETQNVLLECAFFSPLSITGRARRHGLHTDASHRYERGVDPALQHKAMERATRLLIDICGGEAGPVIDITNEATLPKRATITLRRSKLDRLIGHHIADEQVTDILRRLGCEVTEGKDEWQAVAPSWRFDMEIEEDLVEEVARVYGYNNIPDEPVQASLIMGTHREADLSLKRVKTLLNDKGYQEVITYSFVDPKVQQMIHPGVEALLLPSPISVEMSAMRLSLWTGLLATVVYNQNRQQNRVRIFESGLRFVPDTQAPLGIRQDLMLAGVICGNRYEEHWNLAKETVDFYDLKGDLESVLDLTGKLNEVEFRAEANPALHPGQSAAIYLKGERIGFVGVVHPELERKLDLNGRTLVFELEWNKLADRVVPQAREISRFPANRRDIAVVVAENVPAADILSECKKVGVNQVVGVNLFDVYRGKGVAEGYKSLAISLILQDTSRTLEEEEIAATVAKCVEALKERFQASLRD
Sequence of UniProt P42593 (P42593 whole entry): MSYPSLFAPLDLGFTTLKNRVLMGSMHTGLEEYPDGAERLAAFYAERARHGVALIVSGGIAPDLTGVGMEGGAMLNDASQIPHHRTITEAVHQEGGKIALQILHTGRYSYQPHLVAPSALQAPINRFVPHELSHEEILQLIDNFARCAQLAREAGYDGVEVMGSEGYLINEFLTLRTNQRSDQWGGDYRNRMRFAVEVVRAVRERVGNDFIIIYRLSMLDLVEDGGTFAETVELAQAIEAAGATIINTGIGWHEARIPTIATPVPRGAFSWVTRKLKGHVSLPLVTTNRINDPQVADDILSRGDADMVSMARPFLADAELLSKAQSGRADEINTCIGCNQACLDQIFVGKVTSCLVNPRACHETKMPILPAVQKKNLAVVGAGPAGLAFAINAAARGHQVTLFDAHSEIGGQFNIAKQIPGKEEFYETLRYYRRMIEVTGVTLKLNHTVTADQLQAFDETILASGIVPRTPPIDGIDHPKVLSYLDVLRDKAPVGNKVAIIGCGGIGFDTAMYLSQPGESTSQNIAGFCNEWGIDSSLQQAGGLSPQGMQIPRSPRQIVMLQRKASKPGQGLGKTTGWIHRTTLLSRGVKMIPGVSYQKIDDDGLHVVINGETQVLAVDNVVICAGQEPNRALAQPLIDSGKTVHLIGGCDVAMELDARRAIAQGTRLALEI
Sequence of UniProt P15640 (P15640 whole entry): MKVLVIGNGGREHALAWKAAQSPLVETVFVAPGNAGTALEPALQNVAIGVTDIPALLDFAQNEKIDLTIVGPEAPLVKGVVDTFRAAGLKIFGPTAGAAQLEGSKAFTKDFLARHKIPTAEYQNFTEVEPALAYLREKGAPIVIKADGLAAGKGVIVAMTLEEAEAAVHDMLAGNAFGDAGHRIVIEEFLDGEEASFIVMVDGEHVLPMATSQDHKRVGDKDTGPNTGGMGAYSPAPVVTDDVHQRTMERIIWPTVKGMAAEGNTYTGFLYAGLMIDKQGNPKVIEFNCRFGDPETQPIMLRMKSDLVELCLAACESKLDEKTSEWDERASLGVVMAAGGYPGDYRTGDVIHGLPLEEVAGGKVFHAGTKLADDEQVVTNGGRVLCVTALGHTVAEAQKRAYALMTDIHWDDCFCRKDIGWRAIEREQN
Sequence of UniProt P15038 (P15038 whole entry): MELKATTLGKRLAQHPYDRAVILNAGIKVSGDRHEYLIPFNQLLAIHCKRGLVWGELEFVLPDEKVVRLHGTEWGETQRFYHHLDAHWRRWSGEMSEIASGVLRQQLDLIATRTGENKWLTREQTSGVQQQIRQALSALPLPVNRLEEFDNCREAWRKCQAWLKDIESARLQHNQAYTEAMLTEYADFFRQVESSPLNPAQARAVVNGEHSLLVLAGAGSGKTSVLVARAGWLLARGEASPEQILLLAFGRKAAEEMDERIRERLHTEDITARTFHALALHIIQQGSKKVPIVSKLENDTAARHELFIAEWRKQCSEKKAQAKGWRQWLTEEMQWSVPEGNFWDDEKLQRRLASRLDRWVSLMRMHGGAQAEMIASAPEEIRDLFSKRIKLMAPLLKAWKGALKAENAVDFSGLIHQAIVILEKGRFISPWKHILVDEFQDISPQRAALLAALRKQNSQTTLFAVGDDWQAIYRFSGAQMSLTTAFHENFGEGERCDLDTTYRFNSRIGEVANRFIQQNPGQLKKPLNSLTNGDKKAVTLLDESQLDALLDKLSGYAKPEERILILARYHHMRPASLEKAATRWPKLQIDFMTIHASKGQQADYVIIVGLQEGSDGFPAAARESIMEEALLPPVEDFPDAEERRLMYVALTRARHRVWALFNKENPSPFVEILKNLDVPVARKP
Sequence of UniProt P37617 (P37617 whole entry): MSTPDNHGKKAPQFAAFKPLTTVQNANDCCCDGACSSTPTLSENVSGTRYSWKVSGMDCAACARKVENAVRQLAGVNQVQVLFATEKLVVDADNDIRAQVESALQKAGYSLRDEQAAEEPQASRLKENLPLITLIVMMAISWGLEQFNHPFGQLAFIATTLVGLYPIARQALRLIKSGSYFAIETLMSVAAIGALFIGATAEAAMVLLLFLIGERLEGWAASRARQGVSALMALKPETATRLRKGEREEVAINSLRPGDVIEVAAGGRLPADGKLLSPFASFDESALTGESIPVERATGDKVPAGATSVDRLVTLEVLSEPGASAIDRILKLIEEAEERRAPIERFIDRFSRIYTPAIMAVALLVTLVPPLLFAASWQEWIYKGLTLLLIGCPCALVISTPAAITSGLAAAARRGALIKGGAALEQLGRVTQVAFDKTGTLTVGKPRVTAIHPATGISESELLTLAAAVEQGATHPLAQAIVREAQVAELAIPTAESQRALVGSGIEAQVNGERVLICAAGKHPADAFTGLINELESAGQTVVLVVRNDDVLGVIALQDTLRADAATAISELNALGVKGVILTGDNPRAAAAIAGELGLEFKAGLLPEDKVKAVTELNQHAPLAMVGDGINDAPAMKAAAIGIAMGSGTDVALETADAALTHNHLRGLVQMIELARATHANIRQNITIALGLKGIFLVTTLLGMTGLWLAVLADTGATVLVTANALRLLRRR
Sequence of UniProt P75821 (P75821 whole entry): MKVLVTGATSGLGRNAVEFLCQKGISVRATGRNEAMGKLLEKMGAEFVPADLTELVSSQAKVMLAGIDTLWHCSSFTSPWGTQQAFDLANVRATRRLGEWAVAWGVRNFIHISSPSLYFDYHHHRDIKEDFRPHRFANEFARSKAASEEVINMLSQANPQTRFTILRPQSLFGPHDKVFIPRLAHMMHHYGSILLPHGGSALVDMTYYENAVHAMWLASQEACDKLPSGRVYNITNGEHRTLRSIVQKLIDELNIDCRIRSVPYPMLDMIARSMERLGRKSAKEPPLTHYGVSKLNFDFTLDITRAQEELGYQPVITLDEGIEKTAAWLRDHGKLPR
Sequence of UniProt P37903 (P37903 whole entry): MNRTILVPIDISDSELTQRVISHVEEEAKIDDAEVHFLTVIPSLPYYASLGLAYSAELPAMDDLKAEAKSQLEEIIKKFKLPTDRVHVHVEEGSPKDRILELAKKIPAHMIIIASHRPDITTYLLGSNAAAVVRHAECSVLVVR

Nc1ncnc2c1ncn2[C@@H]1O[C@H](COP(=O)(O)OP(=O)(O)OP(=O)(O)O)[C@@H](O)[C@H]1O [adenosine 5'-triphosphate]
Conditions | pEC50 of peptide local stability change
UniProt P0A6H5 | 3.26
UniProt P04425 | 3.85
UniProt P06710 | 3.78
UniProt P07395 | 3.77
UniProt P08200 | 2.33
UniProt P12282 | 3.44
UniProt P15038 | 3.67
UniProt P15640 | 3.7
UniProt P17888 | 3.81
UniProt P22106 | 2.42
UniProt P25536 | 3.52
UniProt P27300 | 3.18
UniProt P27550 | 3.34
UniProt P30015 | 3.43
UniProt P31142 | 3.24
UniProt P32143 | 3.39
UniProt P33919 | 4.16
UniProt P36879 | 3.73
UniProt P37617 | 3.12
UniProt P37903 | 3.72
UniProt P37908 | 2.73
UniProt P42593 | 2.95
UniProt P43672 | 3.81
UniProt P46889 | 2.99
UniProt P75736 | 2.02
UniProt P75796 | 3.2
UniProt P75821 | 2.62
UniProt P76027 | 2.71
UniProt P76256 | 3.97
UniProt P76594 | 2.33
UniProt Q47129 | 2.46
